Tested on: NOMO1
Experiment: cell viability relative to DMSO control; higher = less cytotoxic
Details: 48 h
In short: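 Before seeding, each leukemia line was adapted for at least four passages in each medium. NOMO1 or SEM cells (500 cells/well) and P12-Ichikawa cells (1000 cells/well) went into 1536-well plates at 5 μl, then received library compounds in DMSO by pin dosing across 11 threefold concentrations, 47 μM to 0.79 nM. Readout was CellTiter-Glo One luminescence after 48 h at 37°C, and viability is given as a per-plate percentage of DMSO wells, with cell-free wells as background.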

[1] = HPLM + 10% dialyzed FBS, 0.000781 µM
[2] = HPLM + 10% dialyzed FBS, 0.00234 µM
[3] = HPLM + 10% dialyzed FBS, 0.00702 µM
[4] = HPLM + 10% dialyzed FBS, 0.0211 µM
[5] = HPLM + 10% dialyzed FBS, 0.0632 µM
[6] = HPLM + 10% dialyzed FBS, 0.19 µM
[7] = HPLM + 10% dialyzed FBS, 0.569 µM
[8] = HPLM + 10% dialyzed FBS, 1.71 µM
[9] = HPLM + 10% dialyzed FBS, 5.12 µM
[10] = HPLM + 10% dialyzed FBS, 15.4 µM
[11] = HPLM + 10% dialyzed FBS, 46.1 µM
[12] = RPMI 5 mM glucose + 10% FBS, 0.000781 µM
[13] = RPMI 5 mM glucose + 10% FBS, 0.00234 µM
[14] = RPMI 5 mM glucose + 10% FBS, 0.00702 µM
[15] = RPMI 5 mM glucose + 10% FBS, 0.0211 µM
[16] = RPMI 5 mM glucose + 10% FBS, 0.0632 µM
[17] = RPMI 5 mM glucose + 10% FBS, 0.19 µM
[18] = RPMI 5 mM glucose + 10% FBS, 0.569 µM
[19] = RPMI 5 mM glucose + 10% FBS, 1.71 µM
[20] = RPMI 5 mM glucose + 10% FBS, 5.12 µM
[21] = RPMI 5 mM glucose + 10% FBS, 15.4 µM
[22] = RPMI 5 mM glucose + 10% FBS, 46.1 µM
[23] = RPMI 5 mM glucose + 10% dialyzed FBS, 0.000781 µM
[24] = RPMI 5 mM glucose + 10% dialyzed FBS, 0.00234 µM
[25] = RPMI 5 mM glucose + 10% dialyzed FBS, 0.00702 µM
[26] = RPMI 5 mM glucose + 10% dialyzed FBS, 0.0211 µM
[27] = RPMI 5 mM glucose + 10% dialyzed FBS, 0.0632 µM
[28] = RPMI 5 mM glucose + 10% dialyzed FBS, 0.19 µM
[29] = RPMI 5 mM glucose + 10% dialyzed FBS, 0.569 µM
[30] = RPMI 5 mM glucose + 10% dialyzed FBS, 1.71 µM
[31] = RPMI 5 mM glucose + 10% dialyzed FBS, 5.12 µM
[32] = RPMI 5 mM glucose + 10% dialyzed FBS, 15.4 µM
[33] = RPMI 5 mM glucose + 10% dialyzed FBS, 46.1 µM

SMILES | cell viability [1] | cell viability [2] | cell viability [3] | cell viability [4] | cell viability [5] | cell viability [6] | cell viability [7] | cell viability [8] | cell viability [9] | cell viability [10] | cell viability [11] | cell viability [12] | cell viability [13] | cell viability [14] | cell viability [15] | cell viability [16] | cell viability [17] | cell viability [18] | cell viability [19] | cell viability [20] | cell viability [21] | cell viability [22] | cell viability [23] | cell viability [24] | cell viability [25] | cell viability [26] | cell viability [27] | cell viability [28] | cell viability [29] | cell viability [30] | cell viability [31] | cell viability [32] | cell viability [33]
CNC1CCC(N(Cc2cccc(-c3ccncc3)c2)C(=O)c2sc3c(F)ccc(F)c3c2Cl)CC1 (stereo not given) | 92.9% | 111% | 121% | 123% | 127% | 106% | 111% | 113% | 100% | 97.8% | 36.5% | 95.3% | 108% | 100% | 106% | 118% | 105% | 117% | 105% | 99% | 104% | 81% | 87% | 99.2% | 104% | 115% | 112% | 99.7% | 110% | 100% | 100% | 108% | 57.4%
COc1cc2c(cc1OC)CC(=O)N(CCCN(C)C[C@H]1Cc3cc(OC)c(OC)cc31)CC2.Cl | 126% | 115% | 107% | 122% | 97.1% | 111% | 122% | 112% | 114% | 115% | 109% | 104% | 105% | 99.2% | 106% | 100% | 102% | 102% | 99.6% | 105% | 97.5% | 95.3% | 111% | 114% | 130% | 115% | 113% | 106% | 92.6% | 110% | 110% | 93% | 100%
CN[C@@H]1[C@H](O)[C@H](NC)[C@H]2O[C@@]3(O)C(=O)C[C@@H](C)O[C@H]3O[C@@H]2[C@H]1O | 123% | 135% | 117% | 113% | 124% | 127% | 128% | 121% | 103% | 87.4% | 42.6% | – | – | – | – | – | – | – | – | – | – | – | 110% | 115% | 115% | 119% | 122% | 121% | 113% | 114% | 119% | 103% | 91.4%
Cc1cn([C@@H]2O[C@H](CO)[C@@H](O)[C@@H]2F)c(=O)[nH]c1=O | – | – | – | – | – | – | – | – | – | – | – | 93.5% | 108% | 102% | 117% | 114% | 121% | 110% | 115% | 109% | 113% | 29% | 86.1% | 120% | 114% | 108% | 123% | 119% | 127% | 120% | 103% | 126% | 22.4%
